Consider 10 compounds from patent US5397794A, “Use of thiazoloisoindolinone derivatives as antiviral medicaments” (Boehringer Mannheim GmbH, priority 1990, dated 1995).

Usually IC50 stands for the point on the concentration scale where inhibition reaches its midpoint.

In one series the target is T1, HIV-RT (purified RT from HIV-1, expressed in E. coli) (Human immunodeficiency virus type 1 group M subtype B, UniProt P04585).
T1 construct: purified RT from HIV-1; made in house; host or cells: E. coli
In words: Inhibition of HIV-1 reverse transcriptase (RT), [3H]-thymidine-5'-triphosphate incorporation. It is filed as biochemical. As to conditions: purified recombinant HIV-1 RT; HIV-LTR in vitro transcript template, 18 mer primer. The source says: Inhibition of reverse transcriptase (RT) by 9b-phenyl-2,3-dihydrothiazolo[2,3-a]isoindol-5(9bH)-one.
The screening test system contains the purified RT from HIV-1, which was expressed by gene-technological methods in E. coli, as well as the components of the initiation complex, such as the in vitro transcripts of the HIV-LTR's with the neighbouring primer binding site as template and an 18 mer oligo-nucleotide as primer complementary to the primer binding site. The [^-3 H]-thymidine-5'-triphosphate incorporation was measured by counting in a β-counter.
Turning to `Cc1cn([C@H]2C[C@H](N=[N+]=[N-])[C@@H](CO[P@](=O)(O)O[P@](=O)(O)OP(=O)(O)O)O2)c(=O)[nH]c1=O` [AZT-TP, 3'-azido-3'-desoxythymidine-5'-triphosphate, reference compound], the IC50 amounted to 6 µM.

As to `O=C1c2ccccc2C2(c3ccc(Cl)cc3)SCCN12` (stereo not shown) [Example 3.2], the concentration for half-maximal inhibition (IC50) came out at 4 µM.

Take `O=C1c2ccccc2C2(c3ccc(Cl)c(Cl)c3)SCCN12` (stereo not shown) [Example 3.4]: the 50% inhibitory concentration (IC50) turned out to be 4 µM.

`Cc1cccc(C23SCCN2C(=O)c2ccccc23)c1C` (stereo not shown) [Example 3.8]: the 50% inhibitory concentration (IC50) was found to be 0.8 µM.

Consider `COc1cccc(C23SCCN2C(=O)c2ccccc23)c1` (stereo not shown) [Example 3.12], for which the IC50 came out at 1.1 µM.

On to `O=C1c2ccccc2C2(c3cccc(C(F)(F)F)c3)SCCN12` (stereo not shown) [Example 3.15], for which the IC50 was determined as 1 µM.

In the case of `Cc1ccc(C)c(C23SCCN2C(=O)c2ccccc23)c1` (stereo not shown) [Example 3.18], the IC50 worked out at 0.95 µM.

Consider `O=C1c2ccccc2C2(c3ccccc3)SCCN12` (stereo not shown) [Example 3.30, 9b-phenyl-2,3-dihydrothiazolo[2,3-a]isoindol-5(9bH)-one], for which the IC50 was found to be 0.7 µM.

As for `O=C1c2ccccc2C2(c3ccccc3)N1CCS2(=O)=O` (stereo not shown) [Example 4, 9b-Phenyl-2,3-dihydrothiazolo[2,3-a]isoindol-5(9bH)-one 1,1-dioxide], the IC50 worked out at 1.4 µM.

System in another series: not given
Assay: not given
The following applies: Hirsch, J. Infec. Dis. 157, 427-431 (1988); cited from earlier work.
`Cc1cn([C@H]2C[C@H](N=[N+]=[N-])[C@@H](CO)O2)c(=O)[nH]c1=O` [AZT, 3'-azido-3'-desoxythymidine]: the therapeutic range entry is given as “very narrow therapeutic range”.
